“Also recorded” adds a separate entry of the source.
Assays:
[1] = test system: subtype F kissing-loop complex; assay: DMS footprinting, subtype F DIS in the context of RNA1-615; type: binding, HIV-1
[2] = test system: subtype A DIS in RNA1-615 (HIV-1 MAL genomic RNA); assay: DMS footprinting of aminoglycosides on RNA1-615 (subtype A DIS); type: binding; conditions: for protection against methylation by DMS: even at 100 μM; for protection against methylation by DMS / protection of A280 against methylation by DMS: RNA1-615; for protection of A280 against methylation by DMS: 10 μM and above
Description: (§1) Materials and Methods: Chemical footprinting experiments were performed on a 23-mer subtype A SL1 RNA or on RNA1-615, which corresponds to nucleotides 1-615 of HIV-1 Mal genomic RNA (Ennifar et al., J. Biol. Chem. 2003 278:2723-2730). Chemical modification was carried out either with dimethyl sulfate (DMS, Fluka) to test the accessibility of N1-A and N3-C positions or with lead acetate (Merck), which selectivity cleaves the subtype A DIS loop between the first and second nucleotides.
(§2) The binding of aminoglycosides to DIS can be detected through several biochemical methods: it induces protection toward chemical modification with dimethyl sulfate (DMS) or toward a specific cleavage in the subtype A promoted by lead (II); it also induces slower migration on non-denaturated gel.
Residues A272 and A280 of RNA1-615 are unpaired in the kissing-loop complex and are methylated by DMS at their N1 position. As previously observed (Baudin et al., J. Mol. Biol. 1993, 229:382-397; Paillart et al., J. Mol. Biol. 1997, 270:36-49), A280 is more reactive than A272, even though the latter nucleotide is flipped out of the helix, while the former is stacked inside the structure. […] On the other hand, A272, which is flipped out of the kissing-loop complex was not protected against methylation by DMS (FIG. 22B). […] Thus, even though these compounds bound to short DIS RNA in the same way as neomycin and lividomycin (FIGS. 19A and 19B), they were unable to efficiently recognize this target in the context of a large RNA.

[3] = test system: DIS kissing-loop complex in RNA1-615 (HIV-1 MAL genomic RNA, subtype A DIS); assay: Lead-induced cleavage of RNA1-615, primer extension assay; type: binding
Description: as §1
To evaluate the capacity of 4,5-disubstituted DOS to bind to the DIS kissing-loop complex in a larger RNA presenting numerous unspecific binding sites, RNA1-615, which corresponds to nucleotides 1 to 615 of the HIV-1 MAL genomic RNA, was used.

[4] = test system: subtype A DIS kissing-loop complex (23-mer RNA); assay: Lead(II)-induced cleavage of the DIS loop, 23-mer RNA (footprinting); type: binding, HIV-1; conditions: for inhibition of lead-induced cleavage of the DIS loop, relative efficiency: FIG. 21; for inhibition of lead-induced cleavage of the subtype A DIS loop: 25 μM aminoglycoside
Description: as §1, §2
At this stage, it was unclear if this class of compound is able to bind to the DIS kissing-loop complex. To compare binding of 4,5-disubstituted and 4,6-disubstituted DOS, a 23-mer RNA corresponding to the subtype A DIS, which was allowed to dimerize in conditions permitting crystallization of the kissing-loop complex, was used. As previously shown, lead (II) induced a specific cleavage in the subtype A DIS loop that is sensitive to the binding of aminoglycoside (FIG. 21).

[5] = test system: subtype F DIS of HIV-1 genomic RNA; assay: In situ DMS footprinting in infected CEMx174 cells and virions, subtype F DIS; conditions: infected cells and viral particles; 3 mM aminoglycoside in culture
[6] = test system: subtype A DIS of HIV-1 genomic RNA; assay: In situ DMS footprinting in infected CEMx174 cells and virions, subtype A DIS; conditions: infected cells and viral particles; 3 mM aminoglycoside in culture
[7] = test system: subtype B DIS of HIV-1 genomic RNA; assay: In situ DMS footprinting in infected CEMx174 cells and virions, subtype B DIS; conditions: infected cells and viral particles; 3 mM aminoglycoside in culture
[8] = test system: DIS kissing-loop complex of RNA1-615 (HIV-1 MAL, subtype A DIS); assay: Competition experiment: exchange of RNA 1-615 homodimer with RNA 1-311 (heterodimer formation); type: biochemical; conditions: for heterodimer formation after addition of RNA1-311: 100 μM aminoglycoside, fivefold excess RNA1-311, up to one hour; for heterodimer formation after addition of RNA1-311 / heterodimer formed compared with dimer 12: 37° C.; for heterodimer formed compared with dimer 12: FIG. 14; for exchange of preformed RNA homodimers (1-615/1-615) with RNA (1-311): FIG. 13
Description: Materials and Methods: In a typical experiment, unlabeled 1-615 RNA (400 nM), together with a corresponding internally labeled RNA (3-5 nCi), were heated for 2 min at 90° C., chilled for 2 min on ice, and dimerization was initiated by addition of 2 μl of 5-fold concentrated dimerization buffer (final concentration: 50 mM sodium cacodylate, pH 7.5, 300 mM KCl, 5 mM MgCl2). After incubation at 37° C. for 20 min, 100 μM of aminoglycosides were added to the RNA mixture and incubation was continue for 15 min. Then, RNA 1-311 was added as a competitor and sample were collected at 2, 5, 10, 15, 20, 30, and 60 min and analyzed on 0.8% agarose gels (45 mM Tris borate pH 8.3, 01 mM MgCl2) at 4° C. Gels were fixed in TCA 10%, dried, and analyzed using a BAS 2000 Bio-Imager (Fuji).
The kissing-loop complex of radiolabeled RNA1-615 was formed, and then aminoglycosides at a 100 AM concentration were added. Next, a fivefold excess of unlabeled RNA1-311, encompassing nucleotides 1 to 311 of HIV-1 MAL genomic RNA, that also contains the subtype A DIS and is thus able to form a heterodimer with RNA1-615, was added (FIG. 24). Due to the dynamic nature of the kissing-loop complex, in the absence of aminoglycoside, greater than half of the radioactive material was shifted in the heterodimer within two minutes, and the RNA1-615 homodimer almost completely disappeared upon prolonged incubation. […] This observation is in keeping with the crystal structures showing that 4,5-disubstituted DOS form a bridge between the two RNA molecules (FIG. 18).
The aminoglycosides have also been investigated in solution. Their ability to stabilize the loop-loop interaction was investigated through competition experiments. Preformed RNA homodimers (1-615/1-615) were placed in the presence of the same but shorter RNA (1-311), and the kinetic of their exchanges was followed in the presence, or not, of aminoglycosides (FIG. 13).

[9] = test system: ribosomal A site; conditions: Wong et al., Chem. Biol. 1998; cited from earlier work
[10] = test system: subtype B kissing-loop complex; assay: DMS footprinting, subtype B DIS; type: binding, HIV-1; conditions: NL4.3 sequence
Description: as §1
The dimeric molecules also protect from DMS modification as neomycin (FIG. 10).
In addition, none of the 4,5-disubstituted DOS was bound to the subtype B kissing-loop complex.

[11] = subtype A, loop adenine A280 and guanine G274

SMILES	binding to the subtype F kissing-loop complex by DMS footprinting [1]	protection against methylation by DMS [2]	inhibition of lead-induced cleavage between A272 and G273 ([3]; even at 100 μM)	inhibition of lead-induced cleavage of the DIS loop, relative efficiency [4]	protection from DMS modification [2, 11]	reduction of alkylation (DMS) of A280 of the subtype F DIS [5]	protection of A280 against methylation by DMS [2]	reduction of alkylation (DMS) of A280 of the subtype A DIS [6]	protection of A280 against DMS methylation of subtype B DIS [7]	inhibition of lead-induced cleavage between A272 and G273 ([3]; 50 μM)	heterodimer formation after addition of RNA1-311 [8]	heterodimer formed compared with dimer 12 [8]	exchange of preformed RNA homodimers (1-615/1-615) with RNA (1-311) [8]	inhibition of lead-induced cleavage of the subtype A DIS loop [4]	affinity for the ribosomal A site [9]	protection from DMS modification ([2]; Mal sequence)	interaction seen by DMS modification [10]
NC[C@H]1O[C@H](O[C@H]2[C@H](O[C@@H]3O[C@H](CO)[C@@H](O)[C@H]3O)[C@@H](O)[C@H](N)C[C@@H]2N)[C@H](N)[C@@H](O)[C@@H]1O [ribostamycin]	did not bind	no protection against methylation	no inhibition	less efficient													
NC[C@H]1O[C@H](O[C@H]2[C@H](O)[C@@H](O[C@H]3O[C@H](CO)[C@@H](O)[C@H](N)[C@H]3O)[C@H](N)C[C@@H]2N)[C@H](N)C[C@@H]1O [tobramycin]					no protection												
NC[C@@H]1O[C@H](O[C@H]2[C@@H](O)[C@H](O[C@@H]3[C@@H](O)[C@H](N)C[C@H](N)[C@H]3O[C@H]3O[C@H](CO)[C@@H](O)C[C@H]3N)O[C@@H]2CO)[C@H](N)[C@@H](O)[C@@H]1O[C@H]1O[C@H](CO)[C@@H](O)[C@H](O)[C@@H]1O [lividomycin]	efficiently bound					more than two-fold	strongly protected A280 against methylation	more than two-fold	did not protect A280	almost completely inhibited	only minimal amounts of heterodimer were formed	twice less heterodimer	almost totally abolish the exchange	completely inhibited			
NC[C@H]1O[C@H](O[C@H]2[C@H](O)[C@@H](O)[C@H](N)C[C@@H]2N)[C@H](N)[C@@H](O)[C@@H]1O [neamine]	did not bind	no protection against methylation	no inhibition	less efficient; also recorded: inhibited cleavage at lower concentration than the tricyclic ribostamycin											higher affinity than ribostamycin		
NCC1O[C@H](O[C@@H]2C(N)C[C@@H](N)C(O)[C@H]2O[C@@H]2O[C@H](CO)C(O[C@H]3O[C@H](CN)[C@@H](O)C(O)C3N)[C@@H]2O)C(N)[C@@H](O)[C@@H]1O (some centres unmarked) [neomycin]	efficiently bound			equally inhibited	protects from DMS modification the loop adenine A280 and the guanine G274	more than two-fold	strongly protected A280 against methylation	more than two-fold	did not protect A280	almost completely inhibited	only minimal amounts of heterodimer were formed	twice less heterodimer	almost totally abolish the exchange	completely inhibited		protect from DMS modification the bases implicated in the interaction	no significant interaction
NC[C@@H]1O[C@H](O[C@H]2[C@@H](O)[C@H](O[C@@H]3[C@@H](O)[C@H](N)C[C@H](N)[C@H]3O[C@H]3O[C@H](CO)[C@@H](O)[C@H](O)[C@H]3N)O[C@@H]2CO)[C@H](N)[C@@H](O)[C@@H]1O [paromomycin]								more than two-fold	did not protect A280		only minimal amounts of heterodimer were formed	twice less heterodimer	almost totally abolish the exchange			protect from DMS modification the bases implicated in the interaction	no significant interaction
